Read-outs that look alike come from different tables or passages of the source.
How the values were obtained:
[1] = test system: Cryptococcus neoformans H99 ATCC 208821 type strain; test: Antifungal MIC assay; type: cell-based; settings: for MIC Cryptococcus neoformans ATCC 208821 / MIC50 Cryptococcus neoformans ATCC 208821 / MIC: extended panel; for MIC Cryptococcus neoformans ATCC 208821 / MIC: second batch, ≥80 or ≥50% inhibition; for MIC Cn: initial CO-ADD dose-response screening, ≥80% growth inhibition; for MIC50 Cryptococcus neoformans ATCC 208821: 50% inhibition, MIC score 2; for MIC: read-out: MIC* Cryptococcus neoformans ATCC 208821
Summary of the method: (§1)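 Read-out was the lowest compound concentration producing ≥80% growth inhibition, scored per CLSI M27. Yeast cells, precultured on YPD agar, were tested in YNB medium at a final 2.5 × 10^3 CFU/mL over 36 h at 35 °C.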

[2] = test system: Candida albicans ATCC 90028 NCCLS11; test: Antifungal MIC assay; type: cell-based; settings: for MIC Ca: initial CO-ADD dose-response screening, ≥80% growth inhibition; for MIC50 Candida albicans ATCC 90028: 50% inhibition, MIC score 2
Summary of the method: as §1

G. mellonella larvae = test: Galleria mellonella in vivo toxicity assay; settings: 10 μL of the highest concentration injected, monitored 6 days
Protocol: Based on criteria of overall antifungal activity, cytotoxicity, and hemolysis as well as compound availability, we selected compounds Co1, Ag2, Eu1, Ir1, Pt1, Pt2, Pt4, Pt5, Au1, Au2, and Au4 to conduct a preliminary in vivo toxicity assay. […] The compounds were dissolved in DMSO and diluted to the highest possible final concentration (Table 3). The larvae were then monitored for 6 days for survival and health using the G. mellonella Health Index Scoring System.[111] […] For the other compounds, no detrimental effects could be observed in the larvae over the monitoring period. […] Nevertheless, factors such as the metabolism, excretion, and/or accumulation of the various metal complexes and their metabolites will still need to be studied more rigorously in rodent models if they are to be advanced into the preclinical pipeline.
The toxicity of compounds was tested in vivo using the G. mellonella model using our previously described methods,[61] Briefly, G. mellonella larvae were reared in a controlled environmental room at Macquarie University, Sydney, Australia, at 30 °C and 65% humidity with a 12-h light/dark cycle. Larvae (200–250 mg) were individually injected with 10 μL of chemical into the last right pro-leg using a 100 μL syringe (Hamilton Ltd.). Each compound was dissolved in DMSO at the maximum concentration given in Table 3 and also diluted in water to final concentrations of 100, 10, and 1 μM. We injected five larvae in triplicate for each of the four dilutions for each compound. Larvae injected with different dilutions of DMSO (10^–1, 10^–2, and 10^–3) were included as negative controls. Following injection, the larvae were incubated at 30 °C and monitored every 24 h for 6 days. Larval performance was assessed according to the G. mellonella Health Index Scoring System.[111] The experiments were repeated over three separate days for biological triplicates.

[3] = test system: HEK-293 human embryonic kidney cells ATCC CRL-1573
Protocol: The cells were incubated together with the compounds for 20 h at 37 °C in 5% CO2. […] Tamoxifen (Sigma T5648) was used as internal control on each plate.

[4] = test system: Candida auris CBS12373 KCTC 17810; test: Antifungal MIC assay, extended panel; type: cell-based; settings: extended panel; for MIC Candida auris CBS12373 / MIC: second batch, ≥80 or ≥50% inhibition; for MIC50 Candida auris CBS12373: 50% inhibition, MIC score 2; for MIC: read-out: MIC* Candida auris CBS12373
Summary of the method: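 This broth microdilution MIC test followed the reference method for antifungal susceptibility testing of yeasts. Fluconazole served as the internal control on every plate. Inoculum came from 3-day YPD agar cultures, was diluted in YNB to 2.5 × 10^3 CFU/mL in 50 μL per well of 384-well plates, and was incubated 36 h at 35 °C. Compounds ran as two technical replicates across two to four independent assays.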

[5] = test system: Candida auris CBS10913 JCM 15448; test: Antifungal MIC assay, extended panel; type: cell-based; settings: extended panel; for MIC / MIC Candida auris CBS10913: second batch, ≥80 or ≥50% inhibition; for MIC: read-out: MIC* Candida auris CBS10913; for MIC50 Candida auris CBS10913: 50% inhibition, MIC score 2
Summary of the method: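 This broth dilution MIC test for yeast used colonies cultured 3 days at 30 °C on YPD agar, suspended to 1 × 10^6 to 5 × 10^6 CFU/mL by OD530 and diluted with YNB. Cells were added at a final 2.5 × 10^3 CFU/mL (50 μL total) to 384-well plates with compound, incubated unshaken at 35 °C for 36 h, with fluconazole as an internal control on every plate.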

[6] = test system: Cryptococcus deuterogattii ATCC 32609 VGII; test: Antifungal MIC assay, extended panel; type: cell-based; settings: extended panel, second batch; ≥80 or ≥50% inhibition
[7] = test system: Candida glabrata ATCC 90030 NCCLS 84; test: Antifungal MIC assay, extended panel; type: cell-based; settings: extended panel, second batch; ≥80 or ≥50% inhibition
Summary of the method: as §1

[8] = test system: Cryptococcus deuterogattii CBS7750 VGII; Serotype B; test: Antifungal MIC assay, extended panel; type: cell-based; settings: extended panel, second batch; ≥80 or ≥50% inhibition
Summary of the method: as §1

[9] = test system: Candida tropicalis ATCC 750; test: Antifungal MIC assay, extended panel; type: cell-based; settings: extended panel, second batch; ≥80 or ≥50% inhibition
Summary of the method: as §1

[10] = extended panel, second batch, ≥80 or ≥50% inhibition
[11] = read-out: HEK293 CC50, ranges obtained upon retesting, new batch
[12] = read-out: HEK CC50, initial CO-ADD screening, 20 h

| Compound | MIC Cryptococcus neoformans ATCC 208821 [1] [µM] | MIC Cn [1] | MIC Candida albicans ATCC 90028 [2, 10] [µM] | MIC Ca [2] | toxicity (G. mellonella larvae) | CC50 [3, 11] [µM] | CC50 [3, 12] [µM] | MIC Candida auris CBS12373 [4] [µM] | MIC [5] [µM] | MIC Cryptococcus deuterogattii ATCC 32609 [6] [µM] | MIC [7] [µM] | MIC Cryptococcus deuterogattii CBS7750 [8] [µM] | MIC [9] [µM] | MIC50 Cryptococcus neoformans ATCC 208821 [1] [µM] | MIC50 Candida albicans ATCC 90028 ([2]; extended panel) [µM] | HEK CC50 ([3]; initial CO-ADD screening, 20 h) [µg/mL] | MIC50 Candida auris CBS12373 [4] [µM] | MIC Candida auris CBS10913 [5] [µM] | MIC50 Candida auris CBS10913 [5] [µM] | MIC Candida tropicalis ATCC 750 [9] [µM] | also measured |
| --- | --- | --- | --- | --- | --- | --- | --- | --- | --- | --- | --- | --- | --- | --- | --- | --- | --- | --- | --- | --- | --- |
| C1=CCCC=CCC1.[I][Pt][I] [Pt2] | 1.56 to 3.13 | 1.25 µM | 12.5 to 25 | 10 µM | nontoxic | > 100 | > 20 | 3.13 to 6.25 | 12.5 | 6.25 to 12.5 | 50 | ≤0.78 to 3.13 | 50 |  |  |  |  |  |  |  |  |
| O=C([O][Ag])c1ccc(N2N=C(/C=C/C=C/c3ccccc3)CC2/C=C/c2ccccc2)cc1.O=C([O][Ag])c1ccc(N2N=C(/C=C/C=C/c3ccccc3)CC2/C=C/c2ccccc2)cc1 (racemic) [Ag2, 1-(4-Carboxyphenyl)-3-{(1E,3E)-4-phenylbuta-1,3-dien-1-yl}-5-{(E)-styryl}-2-pyrazoline silver(I) complex] | ≤0.006 to 0.098 | ≤0.25 µg/mL | ≤0.006 to 0.098 | ≤0.25 µg/mL | nontoxic | 6 to 7 |  | 0.006 to 0.098 |  | 0.006 to 0.098 |  | 0.006 to 0.098 |  | ≤0.006 to 0.098 | ≤0.006 to 0.098 | >32 | ≤0.006 to 0.098 | 0.006 to 0.098 | ≤0.006 to 0.049 | ≤0.006 to 0.049 | MIC Candida glabrata ATCC 90030 [7]: 0.006 to 0.195 µM |
| CC(=NN=C(N)[S-])C(C)=NN=C(N)[S-].O=[N+]([O-])[O-].[Co+3].c1c[nH]cn1.c1c[nH]cn1 [Co1] | 0.39 to 0.78 | 0.5 µg/mL | 0.78 to 1.56 | 0.5 µg/mL | nontoxic | > 100 |  | 0.39 to 0.78 |  | 0.78 to 1.56 | 100 |  | 0.39 |  |  | >32 |  | 0.39 to 0.78 |  |  | MIC [8]: 1.56 µM |
| C1=CCCC=CCC1.[Cl][Pt][Cl] [Pt1] | 1.56 to 3.13 | 2.5 µM | 12.5 to 25 | 10 µM | nontoxic | > 100 | > 20 |  |  | 3.125 to 6.25 | 25 | 1.56 to 3.13 | 25 |  |  |  |  | 6.25 to 12.5 |  |  | MIC [4]: 3.13 µM |
| CC(C)C([O][Pt][Cl])C1=CCCC=CCC1 (centres unmarked) [Pt4] | ≤0.78 to 1.56 | 1.25 µM | 6.25 to 12.5 | 10 µM | nontoxic | > 100 | > 20 | 1.56 to 3.12 |  | 3.12 to 6.25 |  | ≤0.78 to 1.56 |  |  |  |  |  | 6.25 to 12.5 |  | 12.5 to 25 | MIC Candida glabrata ATCC 90030 [7]: 12.5 to 25 µM |
| Cc1ccc2ccc3ccc(C)nc3c2n1.Cc1ccc2ccc3ccc(C)nc3c2n1.O=C([O][Eu]([O]C(=O)c1ccccc1F)[O]C(=O)c1ccccc1F)c1ccccc1F [Eu1] |  |  | ≤0.006 to 0.012 |  | nontoxic | > 200 | > 20 |  | 0.006 |  |  | 0.024 to 0.098 |  | ≤ 0.006 | ≤0.006 to 0.012 |  | ≤ 0.006 |  | ≤ 0.006 | ≤0.006 to 0.049 | MIC [1]: ≤0.006 µM; cytotoxicity: none up to stated concentration ([3]; retest): > 200 µM; MIC [4]: 0.006 µM; MIC [6]: 0.024 µM; MIC Candida glabrata ATCC 90030 [7]: 0.024 to 0.098 µM |
| COc1ccc(/C=C/C2=NN(c3ccc(C(=O)[O][Ag])cc3)C(c3ccc(OC)c(OC)c3)C2)cc1OC.COc1ccc(/C=C/C2=NN(c3ccc(C(=O)[O][Ag])cc3)C(c3ccc(OC)c(OC)c3)C2)cc1OC (racemic) [Ag1, (Ε)-1-(4-Carboxyphenyl)-5-(3,4-dimethoxyphenyl)-3-(3,4-dimethoxystyryl)-2-pyrazoline silver(I) complex] |  | ≤0.25 µg/mL |  | ≤0.25 µg/mL |  | 3 to 4 |  |  | 0.006 | 0.006 to 0.024 | ≤0.006 |  |  | ≤ 0.006 | ≤ 0.006 | >32 | ≤ 0.006 |  | ≤ 0.006 | ≤0.006 to 0.012 | MIC [1]: ≤0.006 µM; MIC ([2]; extended panel, second batch, ≥80 or ≥50% inhibition, read-out: MIC* Candida albicans ATCC 90028): ≤0.006 µM; MIC [4]: ≤0.006 µM; MIC [8]: 0.006 µM |

Reference: PMC9597602, “Metal Complexes as Antifungals? From a Crowd-Sourced Compound Library to the First In Vivo Experiments” (JACS Au, 2022)
